Patent US20180147767A1, “METHODS OF EXTRUDING MULTILAYER FIBERS” (THE BOARD OF TRUSTEES OF UNIVERSITY OF ILLINOIS, priority 2015, published 2018)

Experiments:
[1] = test system: RAW 264.7 mouse macrophage cells and MDA-MB-231 human adenocarcinoma cells; assay: Co-localization and migration of macrophages and tumor cells co-cultured in multilayer alginate fibers (CellTracker confocal imaging, Pearson correlation factor, Coloc2); type: cell-based; conditions: for calculated correlation factor (Pearson): Day 4, drug at approximate IC50: 50 μM for ZA and Rac1, 50 nM for GEF; for migration and co-localization of macrophages with tumor cells: co-cultured fibers, four days of incubation, FIG. 6a
Description: Using CellTracker™-labeling and confocal fluorescence microscopy to quantify the co-localization of the tumor cells and macrophages in co-culture over time (FIG. 8). To calculate correlation factor, ImageJ Fiji with the Coloc2 plugin may be utilized. The images are split into separate channels for macrophages (a) and breast cancer (b) cells and despeckled to remove noise.

[2] = test system: RAW 264.7 mouse macrophage cells and MDA-MB-231 human adenocarcinoma cells; assay: Macrophage to tumor cell volume ratio per fiber (3D stack counting); conditions: Day 4, compared to the other samples
Description: CellTracker Green CM FDA dye and CellTracker CM-Dil dye (Life Technologies) were used to label RAW and 231 cells respectively according to manufacturer's instructions. Labeled 231 cells were dispersed in the alginate solution at a concentration of 5×10^6 cells/mL. Labeled RAW cells were dispersed in CaCl2 solution at a concentration of 4.5×10^7 cells/mL. After fiber generation, fibers were cut into approximately 20 mm sections and stored in 24-well cell culture plates containing media and pharmacological drugs. […] A vehicle control of 2% DMSO in cell culture media was also used. The cells were incubated at 37° C., 5% CO2 environment, with media changes every 2 days.

[3] = read-out: approximate IC50; cited from earlier work

| Structure (SMILES) | calculated correlation factor (Pearson) [1] | migration and co-localization of macrophages with tumor cells [1] | TC/Mϕ ratio [2] | IC50 [3] [µM] | calculated correlation factor (Pearson) ([1]; listed as inhibitor of Rac1) | inhibition of migration and co-localization (TC-Mϕ correlation compared to TC/Mϕ ratio) ([1]; FIG. 7b, straight and patterned fibers) |
| --- | --- | --- | --- | --- | --- | --- |
| COc1cc2ncnc(Nc3ccc(F)c(Cl)c3)c2cc1OCCCN1CCOCC1 [GEF, Gefitinib] | decreases | distinct impairment of migration and co-localization | – | – | – | – |
| Cc1ccc(NC(=O)c2cccc(OCc3c(C)noc3C)c2)cc1S(N)(=O)=O [RAC, Rac1 Inhibitor II] | decreases | distinct impairment of migration and co-localization | significantly higher | ~50 | return to anti-correlation comparable to initial seeding (Day 0) | highest inhibition of migration and co-localization |
